Measured values: US9504676B2, “Molecules inhibiting a metabolic pathway involving the Syk protein tyrosine kinase and method for identifying said molecules” (CENTRE NATIONAL DE LA RECHERCHE SCIENTIFIQUE, priority 2008, dated 2016)
In brackets after ≈: the same amount, converted by molar mass.

Tests used:
[1] = system: BMMC cells; assay: C-13 toxicity test on BMMC cells (Annexin-V and Propidium Iodide); assay type: cell-based; conditions: Staurosporine, 3 hours
Description: FIG. 10. Toxicity test of C-13 on BMMC cells. The BMMC cells were incubated at 37° C. in the presence of 2.5 μM or 5 μM of C-13, 0.25% DMF or Staurosporine. The percentages of live BMMC cells after 3 hours and after 5 days were detected by means of double Annexin-V and Propidium Iodide labelling. The viability of BMMC cells incubated in the presence of 2.5 μM or 5 μM of C-13 or 0.25% DMF was not affected to noteworthy degree after 3 hours (78%, 74% and 79% respectively) or five days (62, 56 and 57%, respectively). On the other hand, the viability of BMMC cells treated under the same conditions with Staurosporine was reduced to a level of 16% after only 3 hours.
• 1) Chemical products and antibodies. A chemical bank of 3000 molecules (a varied subset) was acquired from ChemBridge, Inc. (San Diego, Calif.). Stocks of solutions of small molecules were prepared at a rate of 10 mM in DMSO (dimethylsulphoxide), except for C-13 (methyl 2-{5-[(3-benzyl-4-oxo-2-thioxo-1,3-thiazolidin-5-ylidene)methyl]-2-furyl}benzoate, ChemBridge ID No. 6197026) prepared in DMF (dimethylformamide). Unless specified otherwise, all the reagents were supplied by Sigma. Dinitrophenyl (DNP) hapten was acquired from Calbiochem. Sepharose GammaBind G and all the secondary antibodies were supplied by GE Health Amersham Biosciences. The anti-Syk, anti-Lyn, anti-Btk, anti-PLC-γ1, anti-PLC-γ2, anti-LAT, anti-SLP-76, anti-p38, anti-JNK, anti-Vav, anti-Akt1 and 9E10 antibodies conjugated with HRP were acquired from Santa Cruz Biotechnology. The anti-phospho-p44/42 MAP Kinase, anti-p44/42 MAP Kinase, anti-phospho-p38, anti-phospho-JNK, anti-phospho-Akt1 antibodies were acquired from Cell Signaling. The anti-phospho-LAT and anti-phospho-PLC-γ1 antibodies were supplied by Biosource and the anti-phospho-SLP-76 antibodies by BD Pharmingen. The 4G10 anti-phosphotyrosine monoclonal antibody was acquired from Upstate Biotechnology. • 2) ADA method: ELISA type high-speed molecule screening test, based on antibody displacement (WO 2005106481). The recombinant fusion protein GST:Syk 6-242^8 comprising the residues 6 to 242 of murine Syk tyrosine kinase protein illustrated in FIG. 8B (SEQ ID No. 4) was immobilised on an ELISA plate at a final concentration of 10 μg ml^−1. For the screening of the chemical molecule bank, the small molecules, diluted in PBS at a final concentration of 10 μM were added to the wells for one hour at ambient temperature, before adding the fragment scFv G4G11 at a final concentration of 100 nM for an additional hour. The binding of G4G11 with Syk was assessed by adding the 9E10 monoclonal antibody conjugated with HRP detecting the amino acid sequence EQKLISEEDLN of human c-myc protein located at the C-terminal end of the scFv fragment. To generate Syk mutants, targeted mutagenesis was used on GST:Syk 6-242 protein and the binding of G4G11 with the mutants was assessed in the presence of 5 μM of C-13. • 3) Cells, culture conditions and functional tests. Anti-DNP 2682-I mouse monoclonal antibody was used as the culture supernatant of hybridomas containing 1 μg/ml of IgE. Femoral bone marrow cells were sampled and cultured in Opti-MEM medium (Gibco) supplemented with 10% foetal calf serum and 4% X63 transfectant supernatant secreting murine IL-3. RBL-2H3 (ATCC) leukaemic rat basophil cells were maintained in a single-layer culture in RPMI 1640 medium supplemented with 10% foetal calf serum (Gibco). […]

[2] = biological target: T1, murine Syk tyrosine kinase protein (GST:Syk 6-242) (Mus musculus, UniProt P48025); assay: ADA method: displacement of the binding of scFv G4G11 with Syk (ELISA); conditions: small molecules at 10 μM, scFv G4G11 100 nM; for inhibition at 10 µM: read-out: In vit. inhib.: mean inhibition % of the binding of scFv G4G11 with Syk in the ADA method
T1 construct: made in house
Procedure, shortened: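 GST:Syk 6-242 (murine) was immobilised at 10 μg ml^−1 and pre-incubated 1 h at ambient temperature with compounds at 10 μM final in PBS. scFv G4G11 was then added at 100 nM for 1 h. Bound scFv was detected via its C-terminal c-myc tag with HRP-9E10, and % inhibition was taken from signals with versus without compound.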

[3] = system: RBL-2H3 cells; assay: cells; assay type: cell-based, rat; conditions: RBL-2H3 cells; for IC50: Rattus norvegicus, read-out: Degran. IC50: concentration inhibiting mast cell degranulation by 50%
Procedure, shortened: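 RBL-2H3 rat basophils sensitized 12-16 h with anti-DNP IgE (0.5 μg/ml), pretreated 90 min at 37° C with compound (DMF 0.25% vehicle), then stimulated 45 min with DNP-BSA (50 ng ml^−1) or ionomycin (1.5 μM). Degranulation read as β-hexosaminidase release.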

Row | SMILES | percentage of live BMMC cells [1] [%] | inhibition at 10 µM [2] [%] | IC50 [3] [µg/mL] | In vit. inhib.: mean inhibition % of the binding of scFv G4G11 with Syk in the ADA method [2] [%] | Degran. IC50: concentration inhibiting mast cell degranulation by 50% [3] [µg/mL]
1 | CN[C@@H]1C[C@H]2O[C@@](C)([C@@H]1OC)n1c3ccccc3c3c4c(c5c6ccccc6n2c5c31)C(=O)NC4 [Staurosporine, reference compound] | 16 | – | – | – | –
2 | CC(C)c1ccc(C2C(C(=O)c3ccc(F)cc3)=C(O)C(=O)N2CCCN2CCOCC2)cc1 (centres unmarked) [Molecule 19, 4-(4-fluorobenzoyl)-3-hydroxy-5-(4-isopropylphenyl)-1-[3-(4-morpholinyl)propyl]-1,5-dihydro-2H-pyrrol-2-one] | – | 60 | > 10 | – | –
3 | Cc1ccc(-c2nnc(Nc3cccc(O)c3)c3ccccc23)cc1S(=O)(=O)NC(C)(C)CO [Molecule 67, N-(2-hydroxy-1,1-dimethylethyl)-5-{4-[(3-hydroxyphenyl)amino]-1-phthalazinyl}-2-methylbenzenesulphonamide] | – | 32 | > 10 | – | –
4 | O=C(C1=C(O)C(=O)N(CCCN2CCOCC2)C1c1ccncc1)c1ccc2c(c1)OCCO2 (centres unmarked) [Molecule 83, 4-(2,3-dihydro-1,4-benzodioxin-6-ylcarbonyl)-3-hydroxy-1-[3-(4-morpholinyl)propyl]-5-(4-pyridinyl)-1,5-dihydro-2H-pyrrol-2-one] | – | 19 | ~10 (≈ 21.5 µM) | – | –
5 | COc1ccc(C2C(C(=O)c3ccc(C)cc3)=C(O)C(=O)N2CCN2CCOCC2)c(OC)c1 (centres unmarked) [Molecule 34] | – | 50 | > 10 | – | –
6 | Cc1ccc(C(=O)C(C)OC(=O)c2ccc3c(c2)C(=O)C(c2ccc(C)c(Cl)c2)C3=O)cc1 (centres unmarked) [Molecule 41] | – | 49.5 | > 10 | – | –
7 | COc1ccc(C2C(C(=O)c3ccc(Cl)cc3)=C(O)C(=O)N2CCN2CCOCC2)cc1OC (centres unmarked) [Molecule 36, 4-(4-chlorobenzoyl)-5-(3,4-dimethoxyphenyl)-3-hydroxy-1-[2-(4-morpholinyl)ethyl]-1,5-dihydro-2H-pyrrol-2-one] | – | – | – | 50 | >10
8 | COc1cc(C2C(C(=O)c3ccc(C)o3)=C(O)C(=O)N2CCN(C)C)cc(OC)c1OC (centres unmarked) [Molecule 52, 1-[2-(dimethylamino)ethyl]-3-hydroxy-4-(5-methyl-2-furoyl)-5-(3,4,5-trimethoxyphenyl)-1,5-dihydro-2H-pyrrol-2-one] | – | 46 | > 10 | – | –
9 | COC(=O)c1ccc(NC(=O)CN(c2cccc(OC)c2)S(=O)(=O)c2ccccc2)cc1 [Molecule 81] | – | 20 | > 10 | – | –
10 | COc1ccc(OCC(=O)NCc2cc(-c3nn(C)c(=O)c4ccccc34)ccc2C)cc1 [Molecule 72, 2-(4-methoxyphenoxy)-N-[2-methyl-5-(3-methyl-4-oxo-3,4-dihydro-1-phthalazinyl)benzyl]acetamide] | – | 28 | ~10 (≈ 22.5 µM) | – | –
11 | CCOC(=O)C1=C(c2ccccc2)NC(SCC(=O)Nc2cccc(OC)c2)=C(C#N)C1c1ccco1 (centres unmarked) [Molecule 55, ethyl 5-cyano-4-(2-furyl)-6-({2-[(3-methoxyphenyl)amino]-2-oxoethyl}thio)-2-phenyl-1,4-dihydro-3-pyridine carboxylate] | – | 42.5 | ~5 (≈ 9.7 µM) | – | –
12 | O=C(O)CCC(=O)N(Cc1ccccc1)Cc1cn(-c2ccccc2)nc1-c1cccs1 [Molecule 23, 4-(benzyl{[1-phenyl-3-(2-thienyl)-1H-pyrazol-4-yl]methyl}amino)-4-oxo butanoic acid] | – | 57 | > 10 | – | –
13 | COc1cc(NS(=O)(=O)c2ccc(NC(C)=O)cc2)c(OC)cc1NC(=O)c1ccccc1 [Molecule 21, N-[4-({[4-(acetylamino)phenyl]sulphonyl}amino)-2,5-dimethoxyphenyl] benzamide] | – | 58 | > 10 | – | –
14 | Cn1c(SCC(=O)NCC2CCCO2)nnc1-c1ccc(NC(=O)c2ccccc2Cl)cc1 (centres unmarked) [Molecule 47] | – | 47.5 | > 10 | – | –
15 | Cc1cc(C)c(OCC(=O)N2CCN(C(=O)COc3c(C)cc(C)cc3C)CC2)c(C)c1 [Molecule 58, 1,4-bis [(mesityloxy)acetyl] piperazine] | – | 40 | ~10 (≈ 22.8 µM) | – | –
16 | COc1ccccc1C1C(C(=O)c2cc(C)ccc2C)=C(O)C(=O)N1CCN1CCOCC1 (centres unmarked) [Molecule 7, 4-(2,5-dimethylbenzoyl)-3-hydroxy-5-(2-methoxyphenyl)-1-[2-(4-morpholinyl)ethyl]-1,5-dihydro-2H-pyrrol-2-one] | – | 72 | > 10 | – | –
17 | COc1cccc(C2C(C(=O)c3cc(C)ccc3C)=C(O)C(=O)N2CCCN2CCOCC2)c1OC (centres unmarked) [Molecule 56, 5-(2,3-dimethoxyphenyl)-4-(2,5-dimethylbenzoyl)-3-hydroxy-1-[3-(4-morpholinyl)propyl]-1,5-dihydro-2H-pyrrol-2-one] | – | 42 | ~10 (≈ 20.2 µM) | – | –
18 | COc1cccc(C2C(C(=O)c3ccc(Cl)cc3)=C(O)C(=O)N2CCN2CCOCC2)c1 (centres unmarked) [Molecule 71, 4-(4-chlorobenzoyl)-3-hydroxy-5-(3-methoxyphenyl)-1-[2-(4-morpholinyl)ethyl]-1,5-dihydro-2H-pyrrol-2-one] | – | 29 | > 10 | – | –
19 | O=C(C1=C(O)C(=O)N(CCCN2CCOCC2)C1c1ccccc1F)c1ccc2c(c1)OCO2 (centres unmarked) [Molecule 68, 4-(1,3-benzodioxol-5-ylcarbonyl)-5-(2-fluorophenyl)-3-hydroxy-1-[3-(4-morpholinyl)propyl]-1,5-dihydro-2H-pyrrol-2-one] | – | 30 | ~10 (≈ 21.3 µM) | – | –
20 | COc1ccc(C)cc1NC(=O)CN(c1ccc(C)cc1)S(=O)(=O)c1ccc(OC)c(OC)c1 [Molecule 42] | – | 49 | > 10 | – | –
21 | COc1cc(C2C(C(=O)c3cccs3)=C(O)C(=O)N2CCc2ccccc2)cc(Br)c1O (centres unmarked) [Molecule 8, 5-(3-bromo-4-hydroxy-5-methoxyphenyl)-3-hydroxy-1-(2-phenylethyl)-4-(2-thienylcarbonyl)-1,5-dihydro-2H-pyrrol-2-one] | – | 71 | > 10 | – | –
22 | COc1ccc(C2(CNC(=O)c3ccc(NC(=O)c4ccco4)cc3)CCOCC2)cc1 [Molecule 73, N-{4-[({[4-(4-methoxyphenyl)tetrahydro-2H-pyran-4-yl]methyl}amino)carbonyl]phenyl}-2-furamide] | – | 28 | > 10 | – | –
23 | CCOC(=O)c1[nH]c(N2C(=O)C(O)=C(C(=O)c3ccccc3)C2c2ccc(OC)cc2)nc1C (centres unmarked) [Molecule 12] | – | 69 | > 10 | – | –
24 | CCN1C2=C(C(=O)CCC2)C(c2ccc(OCc3ccc(C)cc3)c(Cl)c2)C2=C1CCCC2=O [Molecule 79] | – | 25 | > 10 | – | –
